From patent US11142520B2, “LDHA activity inhibitors” (ARCTIC PHARMA AS, priority 2017, dated 2021)

What was measured:
LDHA [1] = target: T1, LDHA (Homo sapiens (Human), UniProt P00338); assay: Isothermal titration calorimetry (ITC); assay type: binding; settings: 25° C., NADH 1 mM
Procedure: ITC experiments were performed using a MicorCal PEAQ ITC instrument. Prior to the experiments, LDHA was dialyzed against 50 mM potassium phosphate buffer pH 7.4, 150 mM NaCl, 0.002% pluronic acid F-127 at 4° C. overnight using mini dialysis kits from GE Healthcare. The tested compounds were dissolved to 100 mM in DMSO. After dialysis, the protein was centrifuged at 14,000 rpm at 4° C. for 30 min. Buffer and MilliQ water for the reference cell were degassed prior to use. Protein concentration was determined by A280 nm measurements using a Nanodrop. All ITC experiments were conducted at 25° C. with stirring at 750 rpm. In a typical experiment the compound of interest was loaded into the sample cell at 20 μM and LDHA (200 μM in syringe) was titrated to the compound solution in consecutive injections. NADH (1 mM) and DMSO concentrations (2%) were matched in all solutions. Data were analyzed using the MicroCal PEAQ-ITC analysis software and fitted to a single site binding model, resulting in binding constant Kd, enthalpy ΔH, entropy ΔS and the stoichiometry N.

LDHA [2] = target: T1, LDHA; assay: Coupled diaphorase assay, LDHA; assay type: biochemical; settings: lactate to pyruvate direction, 4-7 nM LDHA
Excerpt: (§1) The inhibitory properties of the compounds were investigated using a coupled enzyme assay that links the lactate dehydrogenase (LDH) reaction to the production of fluorescent resorutin by diaphorase.
(§2) Human lactate dehydrogenases (LDH) catalyze the reversible interconversion between pyruvate and lactate. LDH is capable of catalyzing both the forward (pyruvate to lactate) and the reverse (lactate to pyruvate) reaction, using either NADH or NAD^+ as a cofactor. The reaction proceeds in either direction dependent on various factors, such as substrate availability, the presence of necessary cofactors, temperature and pH. Different isoforms (LDH A, B, and C) of the enzyme favor different reaction directions—LDHA prefers the conversion from pyruvate to lactate, whereas LDHB preferentially oxidizes lactate to pyruvate.
The coupled assay relies on the oxidation of NAD^+ to NADH throughout the conversion of lactate to pyruvate by LDH (isoforms A, B and C). The produced NADH serves as cofactor in the diaphorase reaction, which reduces non-fluorescent resazurin to fluorescent resorufin. Therefore, the assay indirectly monitors the rate of pyruvate production. Although the consumption of NADH can be directly monitored due to the intrinsic fluorescence of the molecule (excitation: 340 nm, emission: 460 nm) there are problems linked to the direct readout method. […] Shifting the assay to longer wavelengths by coupling the LDH reaction to the conversion of resazurin to fluorescent resorufin by diaphorase reduces this compound interference. The assay direction was thus chosen to provide a robust and reliable assay. […]
Compounds were tested in duplicates using 2-fold, 3-fold or 4-fold serial dilutions including 11 individual concentrations, starting from 5000 μM to 30 μM. […] The controls allowed for the calculation of the percentage inhibition for each data point. […] Enzyme solution leading to final concentrations of 4-7 nM LDHA or 6 nM LDHB, as well as 0.2 U/ml diaphorase in the reaction well was dispensed into 384-well plates (Greiner bio-one) using a CyBi®-SELMA robotic pipettor. Compound dilutions and the enzyme were incubated for at least 20 min at room temperature. […] The reaction was quenched by the addition of a stop solution (final concentrations: 20 mM EDTA, 400 mM NaCl, 40 mM pyruvate). Fluorescence was read out after 5 min of incubation at an excitation wavelength of 560 nm and an emission wavelength of 590 nm on a Perkin Elmer Victor X plate reader. […]
(§3) Fluorescence data was normalized to DMSO and inhibition controls resulting in percentage inhibition for every compound concentration. Dose response curves were fitted in KaleidaGraph (www.synergy.com) or Dotmatics software package (www.dotmatics.com) using a standard 4-parameter fit (Levenberg-Marquardt fitting procedure), resulting in IC50 values for the test compounds.

LDHB = LDHB (Homo sapiens (Human), UniProt P07195); assay: Coupled diaphorase assay, LDHB; assay type: biochemical; settings: lactate to pyruvate direction, 6 nM LDHB
Excerpt: as §1, §2
The coupled assay relies on the oxidation of NAD^+ to NADH throughout the conversion of lactate to pyruvate by LDH (isoforms A, B and C). The produced NADH serves as cofactor in the diaphorase reaction, which reduces non-fluorescent resazurin to fluorescent resorufin. Therefore, the assay indirectly monitors the rate of pyruvate production. Although the consumption of NADH can be directly monitored due to the intrinsic fluorescence of the molecule (excitation: 340 nm, emission: 460 nm) there are problems linked to the direct readout method. […] Shifting the assay to longer wavelengths by coupling the LDH reaction to the conversion of resazurin to fluorescent resorufin by diaphorase reduces this compound interference. The assay direction was thus chosen to provide a robust and reliable assay.
Applying the LDHA reaction in the preferred direction for the conversion of pyruvate to lactate under oxidation of NADH to NAD^+ would necessitate running the LDHA reaction to about 80% completion and adding the diaphorase assay reagents afterwards in order to avoid enzyme competition for NADH.
The controls allowed for the calculation of the percentage inhibition for each data point. […] Enzyme solution leading to final concentrations of 4-7 nM LDHA or 6 nM LDHB, as well as 0.2 U/ml diaphorase in the reaction well was dispensed into 384-well plates (Greiner bio-one) using a CyBi®-SELMA robotic pipettor. Compound dilutions and the enzyme were incubated for at least 20 min at room temperature. […] The reaction was quenched by the addition of a stop solution (final concentrations: 20 mM EDTA, 400 mM NaCl, 40 mM pyruvate). Fluorescence was read out after 5 min of incubation at an excitation wavelength of 560 nm and an emission wavelength of 590 nm on a Perkin Elmer Victor X plate reader. […]
as §3

[3] = tested on: MIA PaCa-2 human pancreatic cells; settings: MIA PaCa-2 cells; cited from earlier work
LDH = settings: in vitro; cited from earlier work

Sequence of LDHB (P07195 whole entry): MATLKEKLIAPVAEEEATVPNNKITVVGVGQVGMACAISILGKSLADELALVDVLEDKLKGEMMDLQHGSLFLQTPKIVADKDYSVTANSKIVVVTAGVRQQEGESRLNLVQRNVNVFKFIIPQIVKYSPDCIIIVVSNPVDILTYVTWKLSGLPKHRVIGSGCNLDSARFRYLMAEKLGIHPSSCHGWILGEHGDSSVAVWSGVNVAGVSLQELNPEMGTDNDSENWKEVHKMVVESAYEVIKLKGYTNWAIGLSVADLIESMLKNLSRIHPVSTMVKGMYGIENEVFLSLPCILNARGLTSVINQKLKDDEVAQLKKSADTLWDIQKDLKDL

Compound: O=C1CC(c2ccc(N3CCOCC3)cc2)(c2ccsc2)NC(=O)C1Sc1cc(Cl)ccc1Cl (racemic) [Example 10, 3-((2,5-dichlorophenyl)thio)-6-(4-morpholinophenyl)-6-(thiophen-3-yl)piperidine-2,4-dione]
- -TΔS (LDHA [1]): 0.944 kcal/mol
- Kd (LDHA [1]): 0.0432 µM
- N (stoichiometry) (LDHA [1]): 0.796
- ΔH (LDHA [1]): -11 kcal/mol
- IC50 (LDHA [2]): 0.1 to 0.5 µM

Compound: O=C1CC(c2ccsc2)(c2cccc(OCC3CCCC3)n2)NC(=O)C1Sc1ccc(F)cc1Cl (centres unmarked) [Example 3, 3-[(2-chloro-4-fluorophenyl)sulfanyl]-6-[6-(cyclopentylmethoxy)pyridin-2-yl]-6-(thiophen-3-yl)piperidine-2,4-dione]
- -TΔS (LDHA [1]): 5.11 kcal/mol
- Kd (LDHA [1]): 0.373 µM
- N (stoichiometry) (LDHA [1]): 0.721
- ΔH (LDHA [1]): -3.68 kcal/mol
- IC50 (LDHA [2]): 0.5 to 10 µM
- IC50 (LDHB): > 100 µM

Compound: O=C1CC(c2ccsc2)(c2cccc(OCC3CCCC3)n2)NC(=O)C1Sc1cc(Cl)ccc1Cl (centres unmarked) [Example 5, 6-[6-(cyclopentylmethoxy)pyridin-2-yl]-3-[(2,5-dichlorophenyl)sulfanyl]-6-(thiophen-3-yl)piperidine-2,4-dione]
- -TΔS (LDHA [1]): 4.06 kcal/mol
- Kd (LDHA [1]): 0.671 µM
- N (stoichiometry) (LDHA [1]): 0.548
- ΔH (LDHA [1]): -4.35 kcal/mol
- IC50 (LDHA [2]): 0.1 to 0.5 µM

Compound: CC(=O)OC1=C(Sc2ccc(F)cc2Cl)C(=O)NC(c2ccsc2)(c2cccc(OCC3CCCC3)n2)C1 (centres unmarked) [Example 13, 5-((2-chloro-4-fluorophenyl)thio)-6′-(cyclopentylmethoxy)-6-oxo-2-(thiophen-3-yl)-1,2,3,6-tetrahydro-[2,2′-bipyridin]-4-yl acetate]
- IC50 (LDHA [2]): > 100 µM
- IC50 (LDHB): > 100 µM

Compound: CCCOC(=O)OC1=C(Sc2ccc(F)cc2Cl)C(=O)NC(c2ccc(N3CCOCC3)cc2)(c2ccsc2)C1 (centres unmarked) [Example 14, 5-((2-chloro-4-fluorophenyl)thio)-2-(4-morpholinophenyl)-6-oxo-2-(thiophen-3-yl)-1,2,3,6-tetrahydropyridin-4-yl propyl carbonate]
- IC50 (LDHA [2]): 50 to 100 µM
- IC50 (LDHB): 50 to 100 µM

Compound: CCOC(=O)OC1=C(Sc2cccc(Cl)c2Cl)C(=O)NC(c2ccc(N3CCOCC3)cc2)(c2ccsc2)C1 (centres unmarked) [Example 15, 5-((2,3-dichlorophcnyl)thio)-2-(4-morpholinophenyI)-6-oxo-2-(thiophcn-3-yl)-1,2,3,6-tetrahydropyridin-4-yl ethyl carbonate]
- IC50 (LDHA [2]): 50 to 100 µM
- IC50 (LDHB): > 100 µM

Compound: O=C1CC(c2ccsc2)(c2ccccn2)OC(=O)C1Sc1ccccc1Cl (centres unmarked) [Example 20, 3-((2-chlorophenyl)thio)-6-(pyridin-2-yl)-6-(thiophen-3-yl)dihydro-2H-pyran-2,4(3H)-dione]
- IC50 (LDHA [2]): 0.5 to 10 µM
- IC50 (LDHB): 0.5 to 10 µM

Compound: COCCOC(=O)OC1=C(Sc2ccc(Cl)cc2Cl)C(=O)NC(c2ccsc2)(c2cccc(OCC3CCCC3)n2)C1 (centres unmarked) [Example 22, 6′-(cyclopentylmethoxy)-5-((2,4-dichlorophenyl)thio)-6-oxo-2-(thiophen-3-yl)-1,2,3,6-tetrahydro-[2,2′-bipyridin]-4-yl (2-methoxyethyl) carbonate]
- IC50 (LDHA [2]): > 100 µM
- IC50 (LDHB): > 100 µM

Compound: O=C1CC(c2cnc(N3CCOCC3)nc2)(c2ccsc2)OC(=O)C1Sc1ccccc1Cl (centres unmarked) [Example 23, 3-((2-chlorophenyl)thio)-6-(2-morpholinopyrimidin-5-yl)-6-(thiophen-3-yl)dihydro-2H-pyran-2,4(3H)-dione]
- IC50 (LDHA [2]): 0.5 to 10 µM
- IC50 (LDHB): 0.5 to 10 µM

Compound: O=C1CC(c2ccc(N3CCOCC3)cc2)(c2ccsc2)NC(=O)C1Sc1ccccc1Cl (centres unmarked) [Example 24, 3-((2-chlorophenyl)thio)-6-(4-morpholinophenyl)-6-(thiophen-3-yl)piperidine-2,4-dione]
- time of continuous LDHA inhibition until cell death occurred [3]: ≥ 2 days

Compound: O=C1CC(c2ccc(N3CCOCC3)cc2)(c2ccsc2)NC(=O)C1Sc1ccc(Cl)cc1Cl (centres unmarked) [Example 29, 3-((2,4-dichlorophenyl)thio)-6-(4-morpholinophenyl)-6-(thiophen-3-yl)piperidine-2,4-dione]
- IC50 (LDHA [2]): 50 to 100 µM
- IC50 (LDHB): > 100 µM

Compound: COCCOC(=O)OC1=C(Sc2ccc(Cl)cc2Cl)C(=O)NC(c2ccc(N3CCOCC3)cc2)(c2ccsc2)C1 (centres unmarked) [Example 30, 5-((2,4-dichlorophenyl)thio)-2-(4-morpholinophenyl)-6-oxo-2-(thiophen-3-yl)-1,2,3,6-tetrahydropyridin-4-yl (2-methoxyethyl) carbonate]
- IC50 (LDHA [2]): > 100 µM
- IC50 (LDHB): > 100 µM

Compound: CC(C)COC(=O)OC1=C(Sc2ccc(F)cc2Cl)C(=O)NC(c2ccc(N3CCOCC3)cc2)(c2ccsc2)C1 (centres unmarked) [Example 32, 5-((2-chloro-4-fluorophenyl)thio)-2-(4-morpholinophenyl)-6-oxo-2-(thiophen-3-yl)-1,2,3,6-tetrahydropyridin-4-yl iso-butyl carbonate]
- IC50 (LDHA [2]): > 100 µM
- IC50 (LDHB): > 100 µM

Compound: COCCOC(=O)OC1=C(Sc2ccc(F)cc2Cl)C(=O)NC(c2ccc(N3CCOCC3)cc2)(c2ccsc2)C1 (centres unmarked) [Example 33, 5-((2-chloro-4-fluorophenyl)thio)-2-(4-morpholinophenyl)-6-oxo-2-(thiophen-3-yl)-1,2,3,6-tetrahydropyridin-4-yl (2-methoxyethyl) carbonate]
- IC50 (LDHA [2]): 0.5 to 10 µM
- IC50 (LDHB): > 100 µM

Compound: NC(=O)C(=O)O [Oxamate]
- concentration range that inhibits LDH enzyme activity (LDH): mM range
